Laboratory results from publication PMC11530593, “Structural mechanism of human HCN1 hyperpolarization-activated channel inhibition by ivabradine” (The Journal of Biological Chemistry, 2024).
Positions count from the first letter of the chain named.

Experiments:
HCN1 mutant F143A = molecular target: T1, HCN1 mutant F143A (Homo sapiens, UniProt O60741, F143A); experiment: Whole-cell patch-clamp, Ih inhibition, HCN1 mutant; type: cell-based
T1 construct: Full-length WT or mutant human HCN1 were cloned into the pcDNA3.1 vector; expressed in transfected cells; host or cells: HeLa cells, pcDNA3.1 vector, transient lipofection
T1 sequence (O60741 1-890 F143A): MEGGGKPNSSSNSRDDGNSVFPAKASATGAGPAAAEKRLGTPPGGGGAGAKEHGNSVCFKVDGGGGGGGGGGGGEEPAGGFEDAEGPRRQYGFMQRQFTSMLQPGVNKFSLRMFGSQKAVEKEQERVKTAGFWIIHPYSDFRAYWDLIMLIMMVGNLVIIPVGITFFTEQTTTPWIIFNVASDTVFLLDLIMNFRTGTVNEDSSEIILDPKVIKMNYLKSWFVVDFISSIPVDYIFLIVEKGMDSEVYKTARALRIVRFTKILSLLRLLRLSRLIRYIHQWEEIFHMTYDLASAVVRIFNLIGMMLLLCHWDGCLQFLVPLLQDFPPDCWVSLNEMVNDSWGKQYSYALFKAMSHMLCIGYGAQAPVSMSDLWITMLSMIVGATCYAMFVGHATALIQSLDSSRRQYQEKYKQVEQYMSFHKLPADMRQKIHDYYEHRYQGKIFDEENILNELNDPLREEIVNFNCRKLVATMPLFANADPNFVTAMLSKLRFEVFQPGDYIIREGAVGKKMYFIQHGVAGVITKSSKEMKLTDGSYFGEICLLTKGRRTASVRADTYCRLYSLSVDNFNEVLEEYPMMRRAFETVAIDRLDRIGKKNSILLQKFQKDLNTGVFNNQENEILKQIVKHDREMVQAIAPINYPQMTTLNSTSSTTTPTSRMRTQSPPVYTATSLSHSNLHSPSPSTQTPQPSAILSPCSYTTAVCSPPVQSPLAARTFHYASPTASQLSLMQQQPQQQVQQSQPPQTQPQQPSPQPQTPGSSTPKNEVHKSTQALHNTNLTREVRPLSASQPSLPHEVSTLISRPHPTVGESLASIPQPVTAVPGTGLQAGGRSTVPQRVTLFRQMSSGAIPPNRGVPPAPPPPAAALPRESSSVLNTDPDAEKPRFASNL
Protocol: (§1) To elucidate the contribution of these residues to the inhibitory effect of ivabradine, we introduced mutations in ivabradine-interacting residues, converting them into alanines (Fig. 2F).
(§2) Full-length WT or mutant human HCN1 were cloned into the pcDNA3.1 vector for electrophysiological experiments. HeLa cells (from Thermo Fisher Scientific) cultured in Dulbecco's modified Eagle's medium (from Solarbio Life Science) + 10% fetal bovine serum (from ExCell Bio) at 37 °C were transiently transfected using lipofection, and whole-cell patch-clamp recordings were obtained using the Axon 200B amplifier (Molecular Devices) and clampex software (https://www.moleculardevices.com/products/axon-patch-clamp-system/acquisition-and-analysis-software/pclamp-software-suite), 36 to 48 h posttransfection. The extracellular solution contained 110 mM NaCl, 0.5 mM MgCl2, 1.8 mM CaCl2, 5 mM Hepes, 30 mM KCl, and pH was adjusted to 7.4 with NaOH, while the pipette solution contained 130 mM KCl, 10 mM NaCl, 0.5 mM MgCl2, 1 mM EGTA, 5 mM Hepes, and pH was adjusted to 7.4 with KOH. The recordings were performed at room temperature, voltage-clamp mode, and filtered at 1 kHz. The sampling frequency was 10 kHz, and the series resistance was limited to 5 MΩ. To elicit channel currents, step pulses of 3 s duration ranging from −180 mV to −30 mV were applied, followed by a step to −180 mV lasting 1.25 s. The tail currents evoked by the second step were used to determine the voltage-dependent activation curves and calculate the midpoint of activation potential (V1/2). The half maximal inhibitory concentration (IC50) of drugs was determined by recording currents at a pulse of −140 mV and analyzing current amplitudes at varying drug concentrations. The IC50 value was calculated using the Hill equation.

HCN1 mutant W281A = molecular target: T2, HCN1 mutant W281A (Homo sapiens, UniProt O60741, W281A); experiment: Whole-cell patch-clamp, Ih inhibition, HCN1 mutant; type: cell-based; details: electrophysiological recordings, read-out: IC50 (Fig. 2F)
T2 construct: Full-length WT or mutant human HCN1 were cloned into the pcDNA3.1 vector; expressed in transfected cells; host or cells: HeLa cells, pcDNA3.1 vector, transient lipofection
T2 sequence (O60741 1-890 W281A): T1 sequence (O60741 1-890 F143A) with A143F, W281A
Protocol: as §1, §2

IC50 (HCN1 mutant F143A; F143A mutant, electrophysiological recordings, read-out: IC50 (Fig. 2F)): 32.9 µM | change in potency by mutation (HCN1 mutant F143A; F143A versus WT): dramatic decrease | IC50 (HCN1 mutant W281A): 17.4 µM
Compound: COc1cc2c(cc1OC)CC(=O)N(CCCN(C)C[C@H]1Cc3cc(OC)c(OC)cc31)CC2 [ivabradine]
